# Reference: patent publication US20060205642A1, “Oral methods of treatment using proANF peptides” (priority 2005, published 2006)
# What was measured:
# [1] = Infusion into human subjects with Class III NYHA congestive heart failure; type: in vivo, humans; details: for hypotension: human, in vivo
# Experimental: Human proANF's 1-30, 31-67, 79-98, and 99-126 (i.e., ANF) were infused into human subjects with Class III New York Heart Association congestive heart failure (CHF). An identical protocol to that used in example V where these peptides were infused into healthy human subjects was utilized. (See Attachment C and F for a detailed description of this protocol). The human subjects with congestive heart failure received an identical dose (0.1 μg/kg body wt/minute for 60 minutes) that the healthy human subjects received. […] This striking urine output secondary to proANF 31-67 was significant at P<0.0001 compared to the pre-infusion output of the congestive heart failure subjects (n=6).
# [2] = Rat clearance model (diuresis and salt excretion); type: in vivo, Munich-Wistar rats; details: means ± SE
# Experimental: The same three peptides and ANF from Example I are tested using the rat clearance model. Six control rats and six experimental Munich-Wistar rats, each weighing 150-200 grams, are used for each peptide, with catheters being placed in both jugular veins and in the femoral artery. The ureters are cannulated for simultaneous urine collections with femoral artery blood collections.
# After inserting the catheters, a stabilization of one hour is allowed. A 10 μg/kg bolus of each of the respective human sequences of the peptides is given via the jugular vein to six experimental rats followed by a sustaining infusion of 0.1 μg/kg/min for 60 minutes. Blood and urine samples are collected at 20 minute intervals during this 60 minute infusion. In both the control and experimental animals, hematocrits and plasma sodium values remained at the same levels pre- and post-infusion while blood pressure decreased with each of these peptides (see Attachment B).
# [3] = Infusion into healthy human subjects; type: in vivo; details: healthy humans
# Experimental: Infusion of these peptides into healthy human subjects was performed as follows: Human pro-ANF 1-30, pro-ANF 31-67, and pro-ANF 79-98, and hANF (i.e., pro-ANF 99-126, were synthesized by Peninsula Laboratories (Belmont, Calif.). High pressure liquid chromatography (HPLC) analysis was performed on a sample of each of the four peptides to ensure purity. The peptides were dissolved in a sterile 0.9% saline solution to a concentration of 100 μg/ml and dispensed in 2 and 5 ml aliquots into sealed sterile vials. At the time of dispensing, randomly selected vials were tested for pyrogens and sterility. Prior to labeling the vials, the actual peptide content of the dispensed solution were determined by direct radioimmunoassay to account for any possible absorption of the respective peptides to the walls of the vials. All vials were then stored at −80° C. until thawed for individual study.
# Normal healthy subjects were chosen on the basis of age (between 20 and 50 years), physical examination and biochemical screenings. The subjects consumed their normal diets prior to testing. The subjects fasted overnight and were tested in the morning in the seated position. Intravenous catheters were placed bilaterally for the administration of pro-hANF 1-30, pro-hANF 31-67, pro-hANF 79-98 and hANF (pro-hANF 99-126) and for blood sampling. After completion of a 45-minute equilibration period, there were three […] phases of the study: baseline, experimental infusion (60 minutes) and recovery (3 hours). The baseline phase consisted of two 30 minute urine collection periods, the experimental phase consisted of three 20 minute urine and plasma collection periods, and the recovery phase consisted of two 30 minute urine and plasma collection periods each hour for three hours post-infusion. Urine output was replaced on a milliliter per milliliter basis throughout the study by administering oral water or orange juice. Urine samples were obtained by voiding at the designated collection periods.
# The 36 subjects were divided into 6 groups. One group (i.e., the control group) received a placebo infusion of 0.9% sodium chloride during the experimental infusion phase. […] The four remaining groups of six subjects each received human pro-hANF 1-30, pro-hANF 31-67, pro-hANF 79-98 and HANF. The four groups received the peptides by continuous infusion at the rate of 0.1 μg/kg per minute. The volume administered per hour during the experimental infusion phase was 10 ml for all four peptides and the placebo. All infusions were given by a constant-rate infusion pump, with the final concentrations of prohANFs adjusted for the subjects' body weight. The subjects heart rate and cuff blood pressure were taken at 5 minute intervals throughout the study. The excreted urine was analyzed for sodium concentration.
# [4] = test system: porcine aortas; assay: Vasodilation of porcine aortic strips preconstricted with 0.3 micromolar phenylephrine
# Experimental: 30 Kg pigs are sacrificed, and aortic strips are harvested. The strips are attached to F-60 transducer (Narco-BioSystems, Houston, Tex.) and attached to a physiography (Narco-BioSystems) while being submerged in a muscle tissue bath comprising a Krebs Ringer solution at 37° C., with 95% O2-5% CO2, bubbled through the bath. Percentage vasodilation is measured versus time after preconstriction with 0.3 micromolar phenylephrine. […] (Vesely et al., Biochem. Biophys. Res. Commun. 148:1540-1548, 1987).
# [5] = test system: prostaglandin E2 (PGE2) synthesis; assay: Prostaglandin E2 synthesis (FIG. 8); type: biochemical; details: n=6, ANOVA and Duncan's MRT
# [6] = test system: renal medullary Na+-K+-ATPase; assay: Inhibition of renal medullary Na+-K+-ATPase activity (FIG. 9); type: biochemical; details: for inhibition of renal medullary Na+-K+-ATPase activity: 10^-11 M, n=6, ANOVA
# Text: FIG. 9. Inhibition of renal medullary Na+-K+-ATPase activity by proANF 79-98 (kaliuretic peptide), proANF 1-30 (long acting natriuretic peptide), proANF 31-67 (vessel dilator), and angiotensin II at their […] concentrations.
# [7] = test system: particulate guanylate cyclase; assay: Cyclic GMP / particulate guanylate cyclase activation in cultured smooth muscle cells and porcine aorta; type: cell-based
# [8] = test system: particulate guanylate cyclase; assay: Particulate guanylate cyclase activity in the kidney; type: biochemical; details: 1 μM; whole kidney homogenates, renal cortical and medullary membranes, isolated distal nephrons
# Experimental: Testing is also carried out to determine biologic effects of these peptides by measuring their effects on particulate guanylate activity in the kidney.
# [9] = target: particulate guanylate cyclase of porcine aorta and cultured smooth muscle cells (porcine)
# [10] = A, control period (before peptide)
# [11] = B, first 60-minute experiment period, 10 μg/kg bolus then 0.1 μg/kg/min
# [12] = C, second 60-minute experimental period
molecule,measurement,setting,value
H-NPMYNAVSNADLMDFKNLLDHLEEKMPLED-OH [proANF 1-30],increase of fractional excretion of sodium,[1]; CHF individuals,3 fold
same,enhancement of sodium excretion,"[1]; CHF subjects, 100 ng/kg body weight/min for 60 minutes",three-to-eight fold
same,hypotension,[1],None became hypotensive
same,time after stopping infusion for which diuresis / urine flow is still significantly elevated (P<0.01),"[1]; humans with congestive heart failure, listed as Pro ANF's 1-30",≥ 3 h
same,"FENa, fractional excretion of sodium",[2]; [10],0.023 ± 0.002%
same,"UNa, urinary sodium",[2]; [10],34.13 ± 10.98 meq/1
same,"UNaV, urinary sodium excretion rate",[2]; [10],36.37 ± 8.09 μeq · min^−1 · g kidney wt^−1
same,"V, urine flow rate",[2]; [10],1.83 ± 0.27 μl · min^−1 · g kidney wt^−1
same,"V, urine flow rate","[2]; B, first 60-minute experiment period, 10 μg/kg bolus then 0.1 μg/kg/min via jugular vein",3.41 ± 0.48 μl · min^−1 · g kidney wt^−1
same,"FENa, fractional excretion of sodium",[2]; [11],0.241 ± 0.101%
same,"UNa, urinary sodium",[2]; [11],64.83 ± 12.93 meq/1
same,"UNaV, urinary sodium excretion rate",[2]; [11],224.30 ± 60.34 μeq · min^−1 · g kidney wt^−1
same,"V, urine flow rate","[2]; C, second 60-minute experimental period, 10 μg/kg bolus then 0.1 μg/kg/min",4.31 ± 0.84 μl · min^−1 · g kidney wt^−1
same,"FENa, fractional excretion of sodium",[2]; [12],0.285 ± 0.094%
same,"UNa, urinary sodium",[2]; [12],89.50 ± 19.82 meq/1
same,"UNaV, urinary sodium excretion rate",[2]; [12],384.98 ± 124.39 μeq · min^−1 · g kidney wt^−1
same,duration of sodium excreting effects compared to ANF,[3],significantly (P<0.001) prolonged compared to ANF
same,potassium excretion,[3]; 100 ng/kg body wt,significant (P<0.05)
same,increase in urine volume (in words),"[3]; 100 ng/kg body wt per minute for 1 hour i.v., n=6, ANOVA",significant
same,sodium excretion (in words),"[3]; 100 ng/kg body wt per minute for 60 minutes, vs baseline",significantly (P<0.05) increased
same,systolic and diastolic blood pressures,"[3]; 100 ng/kg body wt per minute i.v. for 60 min, n=6",significant
same,duration of sodium excreting effects compared to ANF,[3]; listed as ProANF 1-30,last significantly (P<0.001) longer than ANF's effects
same,increase in cyclic GMP levels over baseline levels associated with vasodilation,[4],four-to-five fold
same,prostaglandin E2 (PGE2) synthesis,[5],increase prostaglandin E2 (PGE2) synthesis
same,inhibition of renal medullary Na+-K+-ATPase activity,[6],significant at P<0.01
same,cyclic GMP levels in cultured smooth muscle cells,[7]; cultured smooth muscle cells,increase cyclic GMP levels
same,concentration of maximal activation of guanylate cyclase activity,[7]; porcine aorta and isolated smooth muscle cells,about 1 μM
same,EC50,"[7]; porcine aorta and isolated smooth muscle cells, read-out: half maximal activation (ED5o) of guanylate cyclase",~10 nM
same,particulate guanylate cyclase activity,[8],enhance
angiotensin II [reference compound],inhibition of renal medullary Na+-K+-ATPase activity,[6],significant at P<0.01
"COc1ccc2cc([C@H](C)C(=O)O)ccc2c1 [Naproxen, reference compound]",blockade of the peptides' effects on renal medullary Na+-K+-ATPase,[6]; 0.5 mM,completely blocked
"CC[C@H](C)[C@@H]1NC(=O)[C@H](CCCNC(=N)N)NC(=O)[C@H](CC(=O)O)NC(=O)[C@H](CCSC)NC(=O)[C@H](CCCNC(=N)N)NC(=O)CNC(=O)CNC(=O)[C@H](Cc2ccccc2)NC(=O)[C@@H](NC(=O)[C@H](CO)NC(=O)[C@H](CO)NC(=O)[C@H](CCCNC(=N)N)NC(=O)[C@H](CCCNC(=N)N)NC(=O)[C@H](CC(C)C)NC(=O)[C@@H](N)CO)CSSC[C@@H](C(=O)N[C@@H](CC(N)=O)C(=O)N[C@@H](CO)C(=O)N[C@@H](Cc2ccccc2)C(=O)N[C@@H](CCCNC(=N)N)C(=O)N[C@@H](Cc2ccc(O)cc2)C(=O)O)NC(=O)CNC(=O)[C@H](CC(C)C)NC(=O)CNC(=O)[C@H](CO)NC(=O)[C@H](CCC(N)=O)NC(=O)[C@H](C)NC(=O)CNC1=O [ANF, reference compound]",hypotension,[1],became hypotensive
human atrial natriuretic factor (ANF) (peptide),half maximal activation (ED50) of guanylate cyclase activity,[9],10 nM
H-SSDRSALLKSKLRALLTAPR-OH [human pro-ANF 79-98],half maximal activation (ED50) of guanylate cyclase activity,[9],10 nM
H-NPMYNAVSNADLMDFKNLLDHLEEKMPLED-OH [human pro-ANF 1-30],half maximal activation (ED50) of guanylate cyclase activity,[9],10 nM
H-EVVPPQVLSEPNEEAGAALSPLPEVPPWTGEVSPAQR-OH [human pro-ANF 31-67],half maximal activation (ED50) of guanylate cyclase activity,[9],10 nM
